“And” between values parts separate entries of the source, which are not always exact repeats. Equal values may be shown once.

Experimental findings from patent publication US20090247634A1, “Methods for identifying modulators of eoxin formation” (priority 2006, published 2009) are described below.

For series [1], the system named is eosinophils. The series can be described thus: Inhibitor studies on formation of Eoxin C4 and LTC4 in eosinophils. It counts as cell-based, human. To be noted: 2 min preincubation, A23187 (1 μM) and arachidonic acid, 5 min, 37° C. On the procedure:
Isolated eosinophils (5-10×10^6/sample) were resuspended in phosphate buffered saline (1 ml/sample) and preincubated for 2 minutes in 37° C. prior to stimulation with Eox A4 (10 μM), LTA4 (10 μM) or both for 5 minutes in 37° C. Alternatively, for inhibitor studies, eosinophils were preincubated for 2 minutes in 37° C. in presence of BW70C (1 μM) or MK886 (10 μM) prior to stimulation with ionophore A23187 (1 μM) and arachidonic acid (40 μM) for 5 minutes in 37° C. The reactions were terminated by addition of three volumes of methanol. Metabolites were detected and quantified utilising Waters 996 photodiode array spectrophotometer connected to Waters 1996 HPLC system.

Series [2] concerns eosinophils. The series can be described thus: Biosynthesis of 14,15-LTC4 and LTC4 in eosinophils (RP-HPLC). It counts as cell-based, human. The following applies: ionophore A23187 (1 μM), 5 min, 37° C.; one line per donor 1-11. How it is done:
(§1) Human eosinophils contain abundant amounts of both 15-lipoxygenase and 5-lipoxygenase. […] The cells were incubated for five minutes at 37° C. and the amounts of 14,15-LTC4 and LTC4 were analyzed with RP-HPLC. […] Therefore, measurement of these metabolites is considered to reflect the total formation of 15-lipoxygenase derived cysteinyl-containing 14,15-leukotrienes and 5-lipoxygenase derived cysteinyl-containing leukotriens, respectively.
(§2) Isolated eosinophils (1-20×10^6/sample) were resuspended in phosphate buffered saline (1 ml/sample) and pre-incubated for 2 minutes in 37° C. (in presence or absence of indomethacin, 1 μM) prior to stimulation with ionophore A23187 (1 μM)/arachidonic acid (1 or 10 μM)/A23187 plus arachidonic acid/PGD2 (1 μM)/LTC4 (1 μM)/IL-5 (10 ng/ml)/14,15-LTC4 (10 μM) or 14,15-LTD4 (10 μM) for indicated time periods at 37° C. The incubations were terminated by addition of one volume of methanol (for analysis by RP-HPLC). For subsequent analysis by enzyme immunoassay (EIA), reactions were terminated by rapid cool off, 0° C., before centrifugation at 1200×g, 5 min. Supernatants were transferred to cryo tubes and stored in −70° C. until analyzed.
In order to get rid of cellular debris and proteins, centrifugation at 1200×g for 5 min. was performed. Supernatants were evaporated under reduced pressure and the residues resolved in methanol and transferred to a test tube. Samples were thereafter evaporated to dryness under a stream of nitrogen, and finally resuspended in 200 μl mobile phase (acetonitril:methanol:H20:acetic acid, 29:19:72:0.8, pH adjusted to 5.6 with NH3 for analysis of leukotrienes and 14,15-leukotrienes, and methanol:water:trifluoroacetic acid 70:30:0.007 for analysis of monohydroxy acids). The extracted samples were subjected to analysis in a reverse phase HPLC system as described. Briefly, samples were applied to a octadecyl reverse phase column (Chromabond ^18C, Macherey-Nagel, Duren, Germany) and elution rate was 1.2 ml/minute.

For a further series, the system named is Hodgkin cell line L1236. As to the kind of experiment: Inhibition of EoxC4 formation in the human cell line L1236. It counts as cell-based. How it is done:
[…] After pre-incubation with the test substance for 5 minutes, arachidonic acid (40 μM) was added. Incubation was stopped after 2 minutes with addition of one volume of methanol. Each test substance concentration was incubated in duplicate.
Cells and cell debris were removed by centrifugation (2600 rpm, 6 min) from the samples. The supernatant was diluted with water and then transferred to a washed and equilibrated extraction cartridge, Oasis HLB 1 cc 10 mg (Waters, Sweden). The metabolites were eluted with methanol and diluted with water before injected to the HPLC system.
RP-HPLC was performed on a Nova Pak C18 column (2.1×150 mm, Waters AB, Sweden). The initial mobile phase consists of 100% A (0.05% (8.7 mM) acetic acid, with pH adjusted to 5.6 with ammonium) at a flow rate at 0.4 mL/min. A linear gradient was started after five minutes to 36% B (60:40 acetonitrile:methanol) at 20 minutes. The mobile phase was than held isocratic at 64:36, A:B for another 20 minutes. Column effluent was monitored using diode array detection (PDA 996, Waters AB, Sweden) and UV spectra were acquired between 200-340 nm.
[…] Incubation and extraction was performed as described above.

Series [3] is described as follows: Non-enzymatic metabolism during incubation at 37° C. The following applies: 60 min incubation at 37° C. It counts as physicochemical. How it is done:
In order to analyze if eosinophils can metabolize 14,15-LTC4 to 14,15-LTD4 and 14,15-LTE4, eosinophils were incubated with synthetic 14,15-LTC4 or 14 (R)-cysteinyl-glycyl-15(S)-hydroxy-5,8,10,12(Z,Z,E,E)-eicosatetraenoic acid (14,15-LTD4) for 60 min at 37° C. The metabolites formed were analyzed with product ion scan at 497.2 m/z for 14,15-LTD4 and 440.2 m/z for 14,15-LTE4. The retention time and mass spectrum of a product formed (Metabolite 2) from 14,15-LTC4 were identical to synthetic 14,15-LTD4 (FIG. 30B), and a product formed (Metabolite 3) after incubation with 14,15-LTD4 had identical retention time and mass spectrum as synthetic 14 (R)-cysteinyl-15(S)-hydroxy-5,8,10,12(Z,Z,E,E)-eicosatetraenoic (14,15-LTE4) (FIG. 30C). […] (data not shown). Basically, the product ion mass spectra of 14,15-leukotrienes and corresponding 5-lipoxygenase derived cysteinyl-leukotrienes are almost identical. However, 14,15-leukotrienes form a fragment at 205 m/z, whereas the corresponding fragment in 5-lipoxygenase derived cysteinyl-leukotrienes is at 189 m/z (FIG. 31). These collision induced dissociation products are probably formed by a cleavage next to the carbon where the cysteinyl group is positioned, which is at carbon 14 for 14,15-leukotrienes and carbon 6 for leukotrienes.

For another series, the system named is neutrophils. The series can be described thus: Oxidative metabolism of neutrophils, lucigenin-enhanced chemiluminescence. It counts as cell-based, human. On the procedure: (§3) Neutrophil and eosinophil granulocytes were purified from peripheral whole blood using a Percoll gradient and the magnetic cell separation system (MACS).
(§4) Granulocytes were primed for 30 minutes at 37° C. with either IL-5 (10.5 ng/mL) or GM-CSF (10.5 ng/mL) and subsequently stimulated with IL-5 (100 ng/mL), GM-CSF (100 ng/mL), LTB4 (10^−7M) or Eoxin (10^−8-10^−6M). Oxidative metabolism was measured by a lucigenin-enhanced chemiluminescence (CL) assay.

Series [4] has as its system confluent bovine endothelium cells. As to the kind of experiment: Endothelial cell barrier function (TEER), Example 6a. It counts as cell-based. To be noted: for plasma leakage / change in TEER: 10^−7 and 10^−8 M; for potency relative to the most potent 5-lipoxygenase derived leukotrienes: FIG. 22. How it is done: Bovine aorta endothelial cells (BAEC) and human umbilical vein endothelial cells (HUVEC) were isolated and cultured with calf serum or human serum. BAEC or HUVEC in the first to fifth passages were detached by brief (2 min) trypsin-EDTA treatment (0.25% trypsin/0.01% EDTA) and replated onto 3.0 μm pore size polycarbonate filters (Tissue Culture inserts, 10 mm; NUNC, Roskilde, Denmark) or, for the purpose of visual inspection, 0.2 μm pore size Anopore inorganic membrane (transparent when wet). In order to promote cellular differentiation and enhance attachment of EC, the filters were pretreated with 50 μl Biomatrix 1 (167 μg/ml) and air-dried. EC were seeded at a density of 2×10^5 cells per filter and incubated in culture medium at 37° C. in a humidified atmosphere of 5% CO2 in air. The EC were grown to confluent monolayers, as assessed by daily microscopic observation, in transparent 0.2 μm pore size filters and measurement of the electrical resistance across the monolayer. Under these experimental conditions maximal resistance is obtained at day 7 postseeding, at which day the EC monolayers were then used in the experiments.
Rapid changes in endothelial cell (EC) barrier function in response to various arachidonic acid metabolites were analysed through continuous registration of transendothelial electrical resistance (TEER) with electrodes on each side of EC monolayer^18. For measurement of TEER, the filter insert with ECs was transferred to a resistance measurement chamber (Endohm-12, World Precision Instruments, Sarasota, Fla., USA) modified so as to assure exact positioning of the electrodes in relation to each other and to the filter insert daring repeated measurements. The chamber (low compartment) and the filter insert (upper compartment) were filled with 2 ml and 400 μl culture medium, respectively. All measurements were made at 37° C. with the equipment placed in a cell culture incubator. Direct readings of the electrical resistance were given by an ohmmeter (Evom, World Precision Instruments, Sarasota, Fla., US) connected to the electrodes of the resistance chamber. The electrical resistance of individual EC monolayers was obtained by subtracting the resistance of the corresponding naked filter coated with Biomatrix as measured prior to seeding of the EC. Thus, TEER values represent the resistance of the EC monolayer solely and depend on the development of tight junctions between adjoining endothelial cells.

Series [5] has as its system eosinophils. As to the kind of experiment: Oxidative metabolism of eosinophils, lucigenin-enhanced chemiluminescence. The class given is cell-based, human. On the procedure: as §3, §4
Series [6] has as its system eosinophils. As to the kind of experiment: Receptor mediated activation of 14,15-LTC4 biosynthesis in eosinophils (EIA). It counts as cell-based, human. The following applies: LTC4 (1 μM), PGD2 (1 μM) or IL-5 (10 ng/ml), 5 min, 37° C. On the procedure: A possible receptor mediated activation of 14,15-LTC4 formation was investigated by using the allergen induced mast cell mediators LTC4 and prostaglandin (PG) D2 as well as IL-5, which is a potent eosinophil activator. Isolated eosinophils (10×10^6/sample) were incubated for 5 min, at 37° C. with LTC4 (1 μM), PGD2 (1 μM) or IL-5 (10 ng/ml). Leukotriene C4, PGD2 and IL-5 all induced release of 14,15-LTC4 from eosinophils after 5 min of incubation (table 2).
as §2
Supernatants were diluted in EIA buffer and analyses were performed according to the manufacturer's protocol. The optical density (OD) from the EIA determinations was used to calculate % B/B0 according to the relationship: […]

Series [7] deals with eosinophils. The series can be described thus: Metabolism in eosinophils after 5 min of incubation. On the procedure:
as §1

`CC(/C=C/c1cccc(Oc2ccc(F)cc2)c1)N(O)C(N)=O` (stereo not shown) [BW70C]: the “LTC4 peak (LTC4 formation)” value in the series on eosinophils [1] (BW70C 1 μM) is “totally abolished”.

Take `CNc1ccc2oc(C[C@H]3O[C@@]4(CC[C@H]3C)O[C@H]([C@H](C)C(=O)c3ccc[nH]3)[C@H](C)C[C@H]4C)nc2c1C(=O)O` [Compound A23187]: in the series on eosinophils [2], the “14,15-LTC4” value is 0 pmol/10^7; the LTC4 is 198 pmol/10^7 and 494 pmol/10^7 and 82 pmol/10^7 and 108 pmol/10^7 and 64 pmol/10^7 and 326 pmol/10^7 and 170 pmol/10^7 and 30 pmol/10^7 and 264 pmol/10^7 and 50 pmol/10^7 and 40 pmol/10^7.

In the case of `CCCCCC#CCC#CCC#CCC#CCCCC(=O)O` [ETYA, Eicosatetraynoic acid], the “formation of EoxC4” value in the series with Hodgkin cell line L1236 (ETYA 10^−4-4 M, FIG. 26) is on record as “completely blocked”; with Hodgkin cell line L1236 (ETYA 10^−5-5 M), “decreased”. Further, the “formation of EoxD4” value is reported as “completely blocked” in the series with Hodgkin cell line L1236 (ETYA 10^−4-4 M, FIG. 26) and “decreased” with Hodgkin cell line L1236 (ETYA 10^−5-5 M).

With `CCCCC[C@H](O)[C@@H](/C=C/C=C/C=C\C/C=C\CCCC(=O)O)SC[C@H](N)C(=O)NCC(=O)O` [EoxD4, 14 (R)-cysteinyl-glycyl-15 (S)-hydroxy-5,8,10,12 (Z,Z,E,E)-eicosatetraenoic acid], in series [3], the non-enzymatic metabolism result is given as “no non-enzymatic metabolism”. Besides, the “radical production by GM-CSF primed neutrophils” value in the series with neutrophils (GM-CSF (10.5 ng/mL) primed, Eoxin 10^−8-10^−6M) is listed as “induced the radical production by primed cells in a dose-dependent manner”. Moreover, in the series on neutrophils (GM-CSF primed neutrophils), the responders is 7-10 subjects of 13. For the same molecule, in series [4], the “plasma leakage / change in TEER” value is “induce significant plasma leakage” and the “potency relative to the most potent 5-lipoxygenase derived leukotrienes” value is given as “about five to ten times less potent”.

In the case of `CCCCC[C@H](O)[C@@H](/C=C/C=C/C=C\C/C=C\CCCC(=O)O)SC[C@H](N)C(=O)O` [EoxE4, 14 (R)-cysteinyl-15 (S)-hydroxy-5,8,10,12 (Z,Z,E,E)-eicosatetraenoic acid], in the series with eosinophils [5] (IL-5 (10.5 ng/mL) primed, Eoxin 10^−8-10^−6M), the “radical production by IL-5 primed eosinophils” value is “broad dose-related induction of the radical production”. Further, the responders in the series on eosinophils [5] (IL-5 primed eosinophils) is 3 of 6 subjects. Moreover, in [4], the “plasma leakage / change in TEER” value is listed as “induce significant plasma leakage” and the “potency relative to the most potent 5-lipoxygenase derived leukotrienes” value was “about five to ten times less potent”.

Regarding `CCCCC/C=C\C\C=C/C=C/C=C/[C@@H](SC[C@H](NC(=O)CC[C@H](N)C(=O)O)C(=O)NCC(=O)O)[C@@H](O)CCCC(=O)O` [LTC4, leukotriene C4], the “14,15-LTC4” value in the series with eosinophils [6] worked out at 56.2 ± 42.5 pg/10^7 cell. The metabolism in eosinophils result in the series on eosinophils [7] is “almost no metabolism”.

As to `CC(C)c1ccc2c(c1)c(SC(C)(C)C)c(CC(C)(C)C(=O)O)n2Cc1ccc(Cl)cc1` [MK886], in the series on eosinophils [1] (MK886 10 μM), the EoxC4 synthesis result is on record as “blocked”.

Consider `CCCCC[C@H](O)/C=C/[C@H]1C(=O)C[C@H](O)[C@@H]1C/C=C\CCCC(=O)O` [PGD2, prostaglandin D2], for which the “14,15-LTC4” value with eosinophils [6] is given as 43.8 ± 16.9 pg/10^7 cell.

Regarding “GM-CSF: the cytokine GM-CSF, a known activator of the oxidative metabolism”, the “oxygen free radical production by non-primed neutrophils” value in the series with neutrophils (non-primed blood neutrophils, GM-CSF 100 ng/mL, LTB4 10^−7M, Eoxin 10^−8-10^−6M) is given as “induced the oxygen free radical production”.

Turning to “IL-5: IL-5, which is a potent eosinophil activator”, the “14,15-LTC4” value in the series with eosinophils [6] is 131 ± 4.9 pg/10^7 cell.
